Where two headings read alike, the source gives them in different places.

The test system of test [1] is elastin mRNA. In words: One-step RT-PCR of elastin and β-actin mRNA.
Protocol: Total RNA was extracted using the RNeasy Mini Kit, according to manufacturers instructions, and 1 μM of total RNA was added to each one step RT-PCR (Qiagen OneStep RT-PCR Kit) and reactions were set up according to manufacturers instructions in a total volume of 25 μl. The reverse transcription step was performed for elastin and β-actin reactions at 50 ° C. for 30 minutes followed by 15 minutes at 95 ° C.
5 μl samples of the elastin and β-actin PCR products from each reaction were ran on a 2% agarose gel and post-stained with ethidium bromide. The amount of elastin mRNA was standardized relative to the amount of β-actin mRNA.
For test [2], the system named is normal human skin fibroblasts. In words: Quantitative assay of insoluble elastin ([3H]-valine metabolic labeling) in fibroblast cultures. Particulars: for reversal of the inhibitory effect of 200 μM iron treatment on elastin deposition: antioxidant applied with 200 μM of iron. Type of test: cell-based.
The next test concerns human skin. Particulars: 10 μM MnSO4 or 20 μM FAC, 7 days; for elastic fibers (Movat's Pentachrome, ×400): person. An excerpt:
Materials and Methods. Organ cultures of explants were derived from surgical biopsies of human skin. […] All organ cultures were fixed in 1% buffered formalin and their transversal histological sections were stained with Movat pentachrome method to visualize major components of extracellular matrix, including elastic fibers.

Test [3] relates to elastin mRNA. In words: Northern blot analysis of elastin mRNA levels in human aortic smooth muscle cells. Type of test: cell-based. As to the method:
(§1) Smooth muscle cells were isolated in the following manner porcine thoracic aortas and coronary arteries were dissected from young pigs obtained from local slaughterhouse. Passage two of human aortic smooth muscle cells from a normal subject was purchased from Clonetics Inc. (San Diego, Calif.). Arterial tissues were diced and explanted in a-MEM (modified Eagle's medium) supplemented with 10% FBS, 25 mM HEPES, L-glutamine, and […]. Tissue samples were diced and cells isolated by collagenase and elastase digestion as previously described.
(§2) Porcine thoracic aortas and coronary arteries were dissected from young pigs obtained from local slaughterhouse. Passage two of human aortic smooth muscle cells from a normal subject was purchased from Clonetics Inc. (San Diego, Calif.). Arterial tissues were diced and explanted in a-MEM (modified Eagle's medium) supplemented with 10% FBS, 25 mM HEPES, L-glutamine, and […]. Tissue samples were diced and cells isolated by collagenase and elastase digestion as previously described. Cells were maintained in a-MEM supplemented with 5% FBS and were routinely passaged by trypsinization. All the experiments were performed using SMC at passage 2-5. […] Aortic and coronary artery SMC's were plated at the initial density 50,000 dish, either directly on plastic or on coverslips, and maintained for 1-2 days until confluency. Cultures were then divided into experimental groups and maintained in the presence and absence of experimental reagents for 7 days. Fresh media were added at days 3 and 5.

For test [4], the system named is elastin mRNA. Particulars: 60 μM DRB. The procedure: (§3) Quantitative TaqMan RT-PCR. […] In order to assess the effect of iron on elastin mRNA stability parallel quadruplicate cultures were grown to confluency in 100 mm dishes. […] The reverse transcriptase reaction was performed using 1.5 μg of total RNA, oligo(dT)'s and the SuperScript First-Strand synthesis system (Invitrogen Life Technologies) according to manufacturer's instructions.
(§4) Elastin mRNA levels was measured by real-time quantitative PCR method performed on the ABI PRISM 7700 Sequence Detection System (Applied Biosystems, Foster City, Calif.). For each treatment two distinct amplifications were carried out in parallel in order to amplify elastin cDNA and GAPDH cDNA. The amplification reactions were performed in 25 μl volumes containing 30 ng of cDNA per treatment in triplicate, 12.5 μl of 2× TaqMan Universal PCR Master Mix (Applied Biosystems), and 1.25 μl of 20× Assays-on-Demand Gene Expression probe for elastin (Applied Biosystems) or TaqMan GAPDH probe (Applied Biosystems). Elastin mRNA levels from each treatment was normalized to the corresponding amount of GAPDH mRNA levels. Water controls and samples without PCR mixtures were set up to eliminate the possibility of significant DNA contamination. Final results were expressed as the mean of two independent experiments.
Since steady-state mRNA levels reflect the balance between transcription efficiency and message decay, we further studied whether fluctuations in iron concentration may affect elastin mRNA stability. […] At indicated time points total RNA was extracted and subjected to quantitative TaqMan RT-PCR analysis. The results are expressed as the mean±SD from two separate experiments conducted in quadruplicate cultures.

Test [5] deals with elastin mRNA. Particulars: 24 hours. As to the method:
(§5) The intensity of elastin message signal detected by Northern blotting was assessed by densitometry after normalization to GAPDH message levels and the corresponding values are shown in the bar graph in arbitrary units. Elastin mRNA levels assessed by TaqMan real time PCR analysis were normalized to the corresponding levels of GAPDH mRNA and expressed as a percentage of untreated control values.

Test [6] has as its system normal human skin fibroblasts. Particulars: for elastin deposition (immunostaining): 3 days.
For test [7], the system named is normal human skin fibroblasts. The note with it: 3 hours.
Protocol: Assays of Intracellular ROS levels. […] This probe passively diffuses into the cell interior and only upon oxidation it releases a fluorescent product that can be visualized under fluorescent microscope or captured by flow cytophotometry, when it is excited at 480 nm. To measure intracellular ROS production normal human skin fibroblasts were plated on glass coverslips in 35 mm dishes (50,000 cells/dish) and grown to confluency. The cells were then washed with PBS and incubated with or without 10 μM of CM-H2DCFDA for 30 minutes in fresh media. The cells were then washed again in PBS and incubated with new media in the presence or absence of FAC (2-400 μM) for 3 additional hours. The cells were then washed twice with PBS before being mounted to the glass slides and the images were captured under a fluorescent microscope under identical parameters of contrast and brightness.
In addition, the quantification of this reaction was performed by flow cytometry (λ excitation 480 nm; λ emission 520 nm). Quadruplicate cultures of fibroblasts were preincubated with CM-H2DCFDA and maintained in the presence or absence of FAC as described above. […] They were then collected by centrifugation (4° C., 1000 RPM for 3 minutes), washed in cold PBS and fixed with 4% formaldehyde for 10 minutes in the dark and analyzed by flow cytometry (FACSCalibur, Beckton Dickinson).
Test [8] has as its system normal human skin fibroblasts.
Protocol: Normal human skin fibroblasts were grown to confluency in 35 mm culture dishes (100,000 cells/dish) in quadruplicates. Then, 2 μCi of [^3H]-valine/ml of fresh media was added to each dish, along with or without 2, 20, 100, 200 μM of FAC. […] The cells were extensively washed with PBS and the soluble proteins present in the intracellular compartments were extracted overnight at 4° C. with 0.1 M acetic acid in the presence of proteinase inhibitors. After centrifugation the supernatants were pre-cleaned by 30 minutes incubation with 50 p. […] The protein A-containing beads were sedimented by centrifugation; washed with immunoprecipitation buffer, mixed with scintillation fluid and counted. […] The resulting pellets containing the insoluble elastin were then solubilized by boiling in 200 μl of 5.7 N HCl for 1 hour, and the aliquots were mixed in scintillation fluid and counted. […] Final results reflecting amounts of metabolically labeled insoluble elastin in individual cultures were normalized per their DNA content and expressed as CPM/1 DNA. […] The conditioned media was then removed and the cell layers were washed and incorporation of [^3H]-valine into the insoluble elastin was assessed as described above.
For test [9], the system named is normal human skin fibroblasts. The procedure: Since the net production of elastic fibers depend on the coordinated expression of multiple factors, the expression of three major factors facilitating elasogenesis by immunoflourecent microscopy after exposure of normal human skin fibroblasts to low (20 μM) and high (200 μM) iron concentrations was tested.
The source holds these as a separate data set.

Test [10] has as its system normal human skin fibroblasts. The procedure: Assessment of Cell Proliferation. Normal human skin fibroblasts were suspended in DMEM containing 10% FBS and plated in 35 mm culture dishes (100,000 cells/dish) in quadruplicates. […] These cultures were then washed in PBS and treated with cold 5% trichloroacetic acid twice for 10 minutes at 4° C. For 30 minutes, 0.5 ml of 0.3 N NaOH was added to all dishes, and 200 μl aliquots of each culture were mixed with scintillation fluid and counted.
This is another data set of the same source.

In test [11] the test system is elastin mRNA. The procedure:
as §3, §4, §5

Another test concerns serine proteinases. The note with it: 2-200 μM iron.
For test [12], the system named is human dermal fibroblast cultures. The test can be described thus: Immunohistochemical analysis of elastin synthesis in human dermal fibroblast cultures. Type of test: cell-based. The note with it: for synthesis of elastin (elastic fibers detected by immunocytochemistry): all concentrations 0.5 μM-2.0 μM, fibroblasts from various aged subjects; for deposition of extracellular matrix components, elastin and collagen type I: human dermal fibroblast cultures. An excerpt:
Refer to FIG. 1, which illustrates both the elastic fibers detected by immunocytochemistry and the morphometric analysis of elastic fibers. MnCl2 and Mn-PCA were introduced into the fibroblasts derived from the various aged subjects over various concentrations.

The next test deals with human dermal fibroblasts. In words: Cellular proliferation of human dermal fibroblasts (total DNA content and [3H]-thymidine incorporation). It is filed as cell-based. The note with it: person. An excerpt:
Manganese compositions induce cellular proliferation.

The subject of test [13] is human dermal fibroblast cultures. The note with it: immunohistochemistry, versus control.
Protocol: In some experiments the serum free medium was also used.
The above prepared fibroblasts and smooth muscle cells were cultured in the presence or absence of (0.5-5 μM) of a manganese salt. Deposition of extracellular matrix components, elastin and collagen type I was assessed in 5-10 days old cultures by immunohistochemistry with a panel of specific antibodies.
Test [14] relates to human aortic smooth muscle cells. The test can be described thus: Metabolic labeling of newly synthesized insoluble elastin by human aortic smooth muscle cells. It is filed as cell-based. The procedure:
as §1
as §2, with “Cultures were then divided into experimental groups and maintained in the presence and absence of experimental reagents for 7 days. Fresh media were added at days 3 and 5.” left out

Setting [15] is: equimolar (20 μM) ferric iron and DFO.

Turning to `CC(=O)N(O)CCCCCNC(=O)CCC(=O)N(O)CCCCCNC(=O)CCC(=O)N(O)CCCCCN` [DFO, desferrioxamine], the “elastin mRNA levels” value in the test on elastin mRNA [1] (20 μM of DFO, compared to untreated control) is “significantly reduced”. Moreover, in the test on elastin mRNA [1] (setting [15]), the “iron induced increase in elastin mRNA levels” value is given as “abolished the iron induced increase”. For the same compound, the “iron induced increase in elastin deposition” value in test [2] (setting [15]) was “abolished the iron induced increase”.

`O=S(=O)([O-])[O-].[Mn+2]` [MnSO4, manganese sulfate]: in the test on human skin, the “agitation and migration of stratum basale-derived cells with fibroblastic phenotype” value is “higher than control level of agitation and migration of stratum basale-derived cells with fibroblastic phenotype”; the “infiltrating activated (differentiating) cells (×600)” value is listed as “seem to contain more such activated cells”; the “elastic fibers (Movat's Pentachrome, ×400)” value is reported as “stimulated production of long elastic fibers primarily running perpendicular to the epidermis”. Also, the “transcription of the elastin gene (elastin mRNA levels)” value (shortened to “transcription of the elastin gene”) in the test on elastin mRNA [3] is “can induce transcription of the elastin gene”.

With `CC1(C)CC(O)CC(C)(C)N1[O]` [Tempol], in test [2], the “reversal of the inhibitory effect of 200 μM iron treatment on elastin deposition” value is “not observed”.

For the compound catalase, the “reversal of the inhibitory effect of 200 μM iron treatment on elastin deposition” value in test [2] is on record as “not observed”.

As for ferric ammonium citrate [FAC], the “elastin mRNA half-life” value with elastin mRNA [4] (20 μM iron) was approximately 16 h. For the same compound, in the test with elastin mRNA [4] (200 μM iron), the “decrease in elastin mRNA level” value is given as “about 2.5 fold” and the “elastin mRNA half-life” value was approximately 6 h. Besides, in the test with elastin mRNA [5] (200 μM of iron), the “elastin mRNA levels (Northern blot, corrected for GAPDH)” value is “returned back to control values”. In addition, in the test with elastin mRNA [5] (2 and 20 μM iron), the “elastin mRNA levels (Northern blot, corrected for GAPDH)” value is recorded as “dose-dependent increase in elastin mRNA levels”. For the same compound, the “elastin deposition (immunostaining)” value in test [6] (100 μM iron) is “did not induce better elastin deposition then treatment with 20”. In [6] (200 μM of iron), the “elastin deposition (immunostaining)” value is “dragged elastin deposition back to the control levels”. Also, in [6] (2 and 20 μM of iron, 3-day-long treatment), the “production of elastic fibers (immunostaining)” value is “significantly increased the production of elastic fibers over control levels”. Also, the “intracellular ROS production” value in [7] (2-40 μM of iron) was “produced the same amount of ROS as untreated controls”. Further, the “intracellular ROS production” value in test [7] (100-400 μM iron) is reported as “dose dependant increase in ROS production”. In the test with human skin, the “agitation and migration of stratum basale-derived cells with fibroblastic phenotype” value is “higher than control level of agitation and migration of stratum basale-derived cells with fibroblastic phenotype”; the “infiltrating activated (differentiating) cells (×600)” value is on record as “seem to contain more such activated cells”; the “elastic fibers (Movat's Pentachrome, ×400)” value is “induced deposition of shorter elastic fibers primarily running parallel to the epidermis”. In test [8] (2 and 20 μM iron, 72 hours), the “[3H]-valine-labeled tropoelastin synthesis” value is “syntesize more [^3H]-valine-labeled tropoelastin than untreated counterparts”. The tropoelastin production result in test [8] (100 and 200 μM iron versus 20 μM) is “lower tropoelastin production as compared to those treated with 20 μM”. In addition, in [9], the “immunodetectable levels of elastin binding protein (EBP)” value was “not changed”, the “immunodetectable levels of fibrillin-1” value is reported as “not changed” and the “immunodetectable levels of lysyl oxidase” value is recorded as “not changed”. In addition, in test [10] (high doses of iron (100 μM and 200 μM), 72 hours, listed as iron), the “[3H]-thymidine incorporation (proliferation rate)” value is recorded as “proliferate with a significantly higher rate than untreated cells”. Further, the cellular proliferation rate entry in [10] (low iron concentrations (lower than 25 μM)) is recorded as “did not cause any increase in cellular proliferation rate”. Besides, in the test with elastin mRNA [11] (20 μM of iron, 24 hours), the “increase in elastin mRNA levels” value is given as approximately 3 fold. Besides, in the test on elastin mRNA [11] (200 μM of iron, 24 hours), the “tropoelastin mRNA (real-time RT-PCR)” value is given as “significant reduction in tropoelastin mRNA”. In the test with elastin mRNA [11] (low iron concentrations (2-20 μM)), the “increase in the elastin mRNA level” value was 2-3 fold. Moreover, in the test on serine proteinases, the “elastolytic activity of serine proteinases” value was “did not stimulate elastolytic activity of serine proteinases”.

Consider manganese chloride [MnCl2], for which, in [12], the “synthesis of elastin (elastic fibers detected by immunocytochemistry)” value was “induce synthesis of elastin”; the “deposition of extracellular matrix components, elastin and collagen type I” value was “induced”. For the same compound, the “transcription of the elastin gene” value with elastin mRNA [3] is recorded as “can induce transcription of the elastin gene”.

In the case of “manganese salt of L-Pyrrolidone Carboxylic Acid [Mn-PCA]”, the dermal fibroblast proliferation entry with human dermal fibroblasts is “stimulate dermal fibroblast proliferation”. In test [13], the “deposition of collagen type I” value was “increased deposition in collagen type I”. Also, in test [12], the “synthesis of elastin (elastic fibers detected by immunocytochemistry)” value is on record as “induce synthesis of elastin”; the “deposition of extracellular matrix components, elastin and collagen type I” value was “induced”. Moreover, in test [14], the “increase in elastin synthesis over the control” value is “two-fold”. Further, in the test on elastin mRNA [3], the “more elastin transcription over the control” value is approximately 66% and the “transcription of the elastin gene” value is reported as “can induce transcription of the elastin gene”.

The values above are taken from patent US9006170B2, “Compositions for elastogenesis and connective tissue treatment” (Human Matrix Sciences, LLC, priority 2004, dated 2015).
